This passage reports IC50 results from PubChem BioAssay AID651569 (Sanford-Burnham Center for Chemical Genomics, 2012).

The source made the active and inactive calls. No rule for the calls is given here. Bounds are passed on as bounds.

The test system of the assay is luminescent cytotoxicity (cell viability) counter-screen. Kind of assay: cytotoxicity of Gli-SUFU antagonist hits, dose response, cytotoxicity control for Gli-SUFU antagonist project, cell-based, luminescence, uHTS hits (AID 651569).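 Also: compound exposure lasted overnight before the viability readout.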
Take `CCOC(=O)c1sc2nc(CC(=O)OC)nc(NCc3ccc(Cl)cc3)c2c1C`: the IC50 was > 20 µM (inactive).

With `Cc1cc(N/N=C/c2ccc(O)cc2O)nc(-n2nc(C)cc2C)n1`, the IC50 was > 20 µM (inactive).

As to `CCn1c(/C=C/Nc2ccccc2)[n+](CC)c2ccc(Cl)cc21`, the IC50 is > 20 µM (inactive).

For `CCN(CC)S(=O)(=O)c1ccc(S(=O)(=O)N2CCCC(C(=O)NC3CC3)C2)cc1` (stereo not drawn), the IC50 is > 20 µM (inactive).

With `CCN(CC)S(=O)(=O)c1ccc(S(=O)(=O)Nc2c(C)nn(C)c2C)cc1`, the IC50 is > 20 µM (inactive).

Take `CC[N+](CC)(CC#Cc1ccccc1)CC#Cc1ccccc1`: the IC50 is > 20 µM (inactive).

On to `CC(C)(C)OC(=O)NCCCCCc1cn(CC(=O)NCCCCCCCCCCC(=O)N2CCN(C(=O)OC(C)(C)C)CC2)nn1`, for which the IC50 was > 20 µM (inactive).

On to `Cn1c(=O)c2c(nc(NCCOc3ccc(C(C)(C)C)cc3)n2C)n(C)c1=O`, for which the IC50 is > 20 µM (inactive).

On to `CCCn1c2c(c(=N)c3c1CCC3)CCCC2`, for which the IC50 is > 20 µM (inactive).

Turning to `COc1ccc(-c2noc(CCCCC(=O)N3CCN(c4cc(C)ccc4C)CC3)n2)cc1`, the IC50 is > 20 µM (inactive).

In the case of `S=C(Nc1ccccc1)N1CCC(Cc2ccccc2)CC1`, the IC50 is > 20 µM (inactive).

In the case of `O=C(NC1CCCC1)c1cc(COc2ccc3ncccc3c2)on1`, the IC50 is > 20 µM (inactive).

As to `CCn1c(=NC(=O)CCS(=O)(=O)c2ccccc2)sc2cccc(OC)c21`, the IC50 was > 20 µM (inactive).

For `CCOC(=O)N1CCN(C(=O)c2cc(COc3ccc4ncccc4c3)on2)CC1`, the IC50 is > 20 µM (inactive).

As for `CN(Cc1nccs1)C(=O)c1cc(COc2cccc3cnccc23)on1`, the IC50 is > 20 µM (inactive).

`CC(=O)c1ccc(-n2cc(-c3ccc(C(C)(C)C)cc3)[n+]3c2SCCC3)cc1`: the IC50 was > 20 µM (inactive).

`O=C(N[C@@H]1C/C=C\C[C@@H](CC(=O)N(CCO)Cc2ccccc2)C(=O)N[C@@H](c2ccccc2)COC1=O)OCC1c2ccccc2-c2ccccc21`: the IC50 was > 20 µM (inactive).

Consider `Cc1c(C(C)C)c(=O)n(-c2ccc(S(=O)(=O)NC3CCCCC3)cc2)n1C`, for which the half-inhibitory concentration (IC50) is 9.32 µM.

On to `C[C@@H]1COC(=O)[C@@H](NC(=O)OCC2c3ccccc3-c3ccccc32)C/C=C\C[C@@H](CC(=O)N(CCO)Cc2ccccc2)C(=O)N1`, for which the IC50 was > 20 µM (inactive).

`Cc1c(CCOC(=O)C23CC4CC(CC(C)(C4)C2)C3)sc[n+]1Cc1ccccc1`: the IC50 is > 20 µM (inactive).

Turning to `CN1/C(=C\C=Nc2ccccc2)C(C)(C)c2ccccc21`, the IC50 was > 20 µM (inactive).

On to `COc1cccc2nc3c(C(=O)NCCN(C)C)cccc3cc12`, for which the half-inhibitory concentration (IC50) is 10.6 µM.

As to `Clc1ccc(-c2cn(-c3ccc(Cl)cc3)c3[n+]2CCCCC3)cc1`, the IC50 is > 20 µM (inactive).

`CCOc1ccc(OCc2ccc(C(=O)NN=Cc3ccc[nH]3)cc2)cc1`: the half-inhibitory concentration (IC50) was 19.3 µM.

For `COc1ccc(-n2c(-c3ccc(Cl)cc3)c[n+]3c2CCc2ccccc2-3)cc1`, the IC50 is > 20 µM (inactive).

In the case of `Cc1ccc(NCC(=O)Nc2cccc(S(=O)(=O)N(C)C)c2)cc1S(=O)(=O)N1CCCCCC1`, the IC50 is > 20 µM (inactive).

Turning to `CC[N+](C)(CC)CCC(c1ccccc1)C1CCCCC1` (stereo not drawn), the IC50 is > 20 µM (inactive).

With `CCC(=O)c1ccc(OCC(O)Cn2c(C)nc3ccccc32)cc1` (stereo not drawn), the IC50 was > 20 µM (inactive).

Regarding `CCN(CC(=O)Nc1c(F)cccc1F)C(=O)c1cc(S(=O)(=O)N(CC)CC)ccc1N1CCCCC1`, the half-inhibitory concentration (IC50) is 9.1 µM.

`O=c1c2ccccc2nc2n1C(CSCc1cccc(C(F)(F)F)c1)CS2` (stereo not drawn): the IC50 is > 20 µM (inactive).

For the molecule `O=C(C[C@@H]1C/C=C\C[C@H](NC(=O)OCC2c3ccccc3-c3ccccc32)C(=O)OC[C@H]2CCCN2C1=O)N[C@H](CO)Cc1ccccc1`, the IC50 is > 20 µM (inactive).

As for `COc1ccccc1CCNC(=O)c1cc(-c2ccncc2)nc2ccc(Br)cc12`, the IC50 was > 20 µM (inactive).

For the molecule `Cc1cc(C)nc(SCC(=O)Nc2ccc(N3CCOCC3)c(Cl)c2)n1`, the IC50 was > 20 µM (inactive).

Consider `NC(=O)CC(NC(=O)c1ccccc1)c1ccc(N2CCCCCC2)c([N+](=O)[O-])c1` (stereo not drawn), for which the IC50 is > 20 µM (inactive).

On to `O=C(c1cc2sccc2n1Cc1ccccc1)N1CCN(c2nc3ccccc3s2)CC1`, for which the IC50 is > 20 µM (inactive).

For `CC(C)Cc1ccc(C(C)C(=O)Nc2cccnc2)cc1` (stereo not drawn), the IC50 is > 20 µM (inactive).

For the molecule `COCCOc1nc2c(c(=O)n(C)c(=O)n2C)n1Cc1cccc(OC)c1`, the IC50 was > 20 µM (inactive).

For `O=C(Cn1cc(C(=O)C2CC2)c2ccccc21)Nc1ccccc1Cl`, the IC50 was > 20 µM (inactive).

With `CCCCCn1c(=N)n(CC(O)COc2ccccc2OC)c2ccccc21` (stereo not drawn), the IC50 is > 20 µM (inactive).

On to `C=C(C)CSc1nc2sc3c(c2c(=O)n1C1CCCCC1)CCN(C)C3`, for which the IC50 is > 20 µM (inactive).

Consider `COc1ccc(OC)c(Cc2cnc3nc(N)nc(N)c3c2C)c1`, for which the IC50 was > 20 µM (inactive).

Consider `CC(C)(C)[C@H]1COC(=O)[C@H](NC(=O)OCC2c3ccccc3-c3ccccc32)C/C=C\C[C@@H](CC(=O)N[C@@H](CO)Cc2ccccc2)C(=O)N1`, for which the IC50 was > 20 µM (inactive).

For `Cc1ccc(C(=O)N2CCN3C(=O)c4ccccc4C23c2ccc(Cl)cc2)cc1` (stereo not drawn), the IC50 was > 20 µM (inactive).

For the molecule `C[N+]1=C(/C=C/Nc2ccccc2)C(C)(C)c2ccccc21`, the IC50 was > 20 µM (inactive).

For `O=C(Nc1nc(-c2cccs2)cs1)c1cccc(S(=O)(=O)N2CCCCCC2)c1`, the IC50 was > 20 µM (inactive).

In the case of `c1ccc(-c2cn(-c3ccccc3)c3[n+]2CCS3)cc1`, the IC50 was > 20 µM (inactive).

With `CCOC(=O)c1ccc(NC(=O)Cn2cnc3cc(C)c(C)cc32)cc1`, the IC50 was > 20 µM (inactive).

Turning to `CC(=O)Nc1cccc(OCC(=O)/C=C2\N(C)c3ccccc3C2(C)C)c1`, the IC50 was > 20 µM (inactive).

Take `COc1ccc(-c2nn(-c3ccccc3)cc2/C=N/NC(=O)c2ccc(Br)o2)cc1`: the IC50 is > 20 µM (inactive).

In the case of `CCCCOCCCNc1ncnc2c1[nH]c1ccccc12`, the IC50 was > 20 µM (inactive).

For `CCCCCCCNC1=CC(=O)CC(c2ccccc2)C1` (stereo not drawn), the IC50 is 16.5 µM.

On to `CNS(=O)(=O)c1cccc(C(=O)OCC(=O)c2cc(C)n(CC3CCCO3)c2C)c1` (stereo not drawn), for which the IC50 was > 20 µM (inactive).

Regarding `C(#Cc1ccccc1)C[N+]1(CC#Cc2cccc3ccccc23)CCCC1`, the IC50 is > 20 µM (inactive).

For the molecule `CCCN(CCC)CCNC(=O)c1cc2c(=O)n(C)c3ccccc3c2n1C`, the IC50 was > 20 µM (inactive).

In the case of `CC1C(OC(=O)CCC(=O)NC(C)(C)CO)O[C@H]2OC3(C)CC[C@H]4[C@H](C)CCC1C24OO3` (stereo partly drawn), the IC50 was > 20 µM (inactive).

As to `COc1ccc(NC(=S)N2CCC(Cc3ccccc3)CC2)cc1`, the IC50 is > 20 µM (inactive).

In the case of `CCOc1ccc(-c2nc(CSCC(=O)NCC3CCCO3)c(C)o2)cc1` (stereo not drawn), the IC50 is > 20 µM (inactive).

In the case of `CCCn1c(SCC(=O)Nc2nc(-c3ccc(OC)cc3)cs2)nc2c1c(=O)n(C)c(=O)n2C`, the IC50 is > 20 µM (inactive).
